Calls of active or inactive are those of the source. No cut-off for these calls is given here.

Our source for the Relative binding affinity values is ChEMBL document CHEMBL1129354, “Molecular modeling and site-directed mutagenesis studies of a phorbol ester-binding site in protein kinase C” (J Med Chem, 1996).

The target of the assay is Protein kinase C alpha type (Homo sapiens) (UniProt P17252). Briefly: Relative binding affinity for Protein kinase C alpha (Inactive).

Turning to `CCCCCCCCCCCCCCCC(=O)OC[C@@H](CO)OC(=O)CCCCCCCCCCCCCCC`, the Relative binding affinity entry is “inactive”.
